Each structure is given as a SMILES string. “Also recorded” adds a separate entry of the source.

The subject of experiment [1] is phospholipid-bound AA and DHA. The experiment in a line: Essential fatty acid profile in plasma, biweekly treatment for 4 weeks (8 treatments). The experiment is classed as in vivo, mice. The protocol: Fenretinide Diet Supplementation. Examples 2 to 6: fenretinide (Sigma-Aldrich, Oakville, ON) powder was resuspended in 95% ethanol and subsequently incorporated in the Peptamen liquid diet. It was protected from light and kept at 4° C. before being given to the mice (5 mg/kg per day per mouse). Mock-treated diets were prepared similarly by adding ethanol to the Peptamen diet but omitting the fenretinide supplementation. The diet was given every morning for 28 consecutive days with specific monitoring of the quantity consumed by the mice in each cage. Examples 7 to 12: fenretinide powder was kindly provided by Dr. Robert Smith (NIH; Bethesda, Md., USA). Fenretinide was resuspended in 95% ethanol to make a 2 μg/μL concentration. Approximately 40 μL of this preparation was incorporated into the Peptamen liquid diet (5 mg/kg per day per mouse). The prepared food containing fenretinide was then stored in the dark at 4° C. for no more than 3 hours prior to being administered to the mice. To ensure that the entire drug dose was consumed, the mice were given 10 mL of fenretinide-treated Peptamen, which represents ⅔ of the daily mouse food consumption, in the late afternoon. The remaining 5 mL of Peptamen (without fenretinide) was given the following morning. Mice were treated twice a week for 4 weeks. During the treatment period each mouse was kept in a separate cage (including WT mice) and was monitored to ensure that the entire amount of Peptamen containing the fenretinide or with out was consumed. The diet for the mock-treated control group was prepared and administered similarly to that described above, by adding the same volume of ethanol to the Peptamen diet but omitting the fenretinide supplementation.
Fatty Acid Analysis. Minced tissues isolated from mice were immersed in 1 mM BHA in chloroform and methanol (2:1 vol). For plasma samples (mouse and human), 100 μL of plasma was added to 1 mL of BHA. Lipids were then extracted from all samples according to standard methods (Folch, et al. (1957) J. Biol. Chem. 226:497-509). Identification of phospholipids was carried out by thin-layer chromatography extraction (Van Handel & Zilversmit (1957) J. Lab. Clin. Med. 50:152-157). Also, fractionated lipids were dried and resuspended in heptane:methanol:sulfuric acid (5:1:1) for free fatty acid extraction. Diazomethane was used to esterify the fatty acids released and the esters were identified by GC/MS (Hewlett Packard 5880A, WCOT capillary column (Supelco-10, 35 m×0.5 mm, 1 μm thick)) using commercial standards (Sigma-Aldrich).

In experiment [2] the test system is DHA levels, DHA/AA ratio, ceramide levels, AA levels. The experiment can be described thus: Systemic lipid parameters in several organs, biweekly treatment for 4 weeks. The note with it: four-week biweekly treatment. It counts as in vivo, mice. The protocol:
Fenretinide Diet Supplementation. Examples 2 to 6: fenretinide (Sigma-Aldrich, Oakville, ON) powder was resuspended in 95% ethanol and subsequently incorporated in the Peptamen liquid diet. It was protected from light and kept at 4° C. before being given to the mice (5 mg/kg per day per mouse). Mock-treated diets were prepared similarly by adding ethanol to the Peptamen diet but omitting the fenretinide supplementation. The diet was given every morning for 28 consecutive days with specific monitoring of the quantity consumed by the mice in each cage. Examples 7 to 12: fenretinide powder was kindly provided by Dr. Robert Smith (NIH; Bethesda, Md., USA). Fenretinide was resuspended in 95% ethanol to make a 2 μg/μL concentration. Approximately 40 μL of this preparation was incorporated into the Peptamen liquid diet (5 mg/kg per day per mouse). […] During the treatment period each mouse was kept in a separate cage (including WT mice) and was monitored to ensure that the entire amount of Peptamen containing the fenretinide or with out was consumed. […]
Ceramide/Sphingolipids analysis. The concentration of ceramide in the (lung, liver, ileum, pancreas homogenates) and plasma from mice and humans were determined by ELISA^39;40 on separated lipids samples by thin layer chromatography, as described above. […]

Experiment [3] deals with cytokines/chemokines (IL-17, IL-1β, IL-6, IL-7, IL-9, IL-10, IL-15, G-CSF, MIP-1a, KC). The experiment can be described thus: Cytokine/chemokine levels in lung homogenates of infected mice. It counts as in vivo. The protocol: Lung Homogenates. Lungs from infected mice were harvested and homogenized for 60 seconds at high speed (homogenizer PT10135; Brinkmann Instruments Co., Mississauga, ON) in 4 mL of sterile PBS (INVITROGEN™). Serial, 10-fold dilutions of lung homogenates were plated on petri dishes containing TSA. The number of CFU per lung was counted after overnight incubation at 37° C. For cytokine measurements, lung homogenates were centrifuged at 1500×g at 4° C. for 10 minutes; the supernatants were then removed, aliquoted in new tubes and stored at −20° C. until assayed for cytokine concentrations.
Cytokine/chemokine measurements. The levels of 10 cytokines/chemokines (IL-1β, IL-6, IL-7, IL-9, IL-10, IL-15, IL-17, G-CSF (granulocyte colony-stimulating factor), MIP-1a (macrophage inflammatory protein 1 alpha), and N51/KC (cytokine-induced neutrophil chemoattractant), were assessed in lung homogenates prepared from infected animals with the Mouse Cytokine/Chemokine LINCOplex kit (Linco Research, Inc, St-Charles, Mo.) using Luminex™ technology and assayed with the Luminex100LS™ system by Linco Research, Inc. The cytokine detection limit for this assay was 3.2 pg/ml.

Take `CC1=C(/C=C/C(C)=C/C=C/C(C)=C/C(=O)Nc2ccc(O)cc2)C(C)(C)CCC1` [fenretinide, all-trans-N-(4-hydroxyphenyl) retinamide]: the “Concentration of phospholipid-bound AA in plasma” value in experiment [1] (Cftr-KO mice, 8 treatments, p<0.05) is reported as “brought down significantly; also recorded: decreased significantly”. Also, the “Phospholipid-bound DHA, increase vs control Cftr-KO” value in experiment [1] (Cftr-KO mice, plasma, 8 treatments) is reported as 2 fold. Moreover, the “DHA:AA ratio, increase vs untreated Cftr-KO” value in experiment [1] (Cftr-KO mice, plasma, 8 treatments, p<0.05) turned out to be 2 fold. Besides, the “DHA bound in phospholipids, increase” value in experiment [1] (WT and Cftr-KO mice, after 4 weeks of biweekly treatments (FIG. 14B legend)) was 2 fold. Further, the “Defect/imbalance in DHA levels, DHA/AA ratio and ceramide levels in all organs” value in experiment [2] (Cftr-KO and HZ mice) is “effective at correcting, at least partially”. Moreover, the “AA levels in control organs (heart, kidney and spleen)” value in experiment [2] (Cftr-KO mice) is listed as “decreases the AA levels to normal”. In addition, in experiment [3] (Cftr-KO mice, not statistically significant), the “Levels of IL-1β, IL-9, KC and MIP-1a vs mock-treated” value is reported as “trend towards decreased levels”. The “IL-17 level, decrease vs Cftr-KO controls” value in experiment [3] (Cftr-KO mice, p=0.049) amounted to 2.9 fold. The “All cytokines tested, fenretinide-treated vs untreated” value in experiment [3] (WT mice) is recorded as “no difference”. Moreover, the “IL-6, G-CSF, IL-15, IL-10 and IL-7 levels” value in experiment [3] (time point tested) was “not affected”.
